In the NIST ThermoML archive (doi:10.1016/j.jct.2005.06.013):
Numbers after ± are expanded uncertainties.

Details: 298.15 K; 101.33 kPa; Crystal; mass and volume measurments

- mass density: 1130 ± 20 kg/m3
SMILES: Oc1cccnc1O [2,3-dihydroxypyridine]
